Source: patent publication US20230078089A1, “Regulating Activation of Fibroblasts to Prevent Fibrosis” (THE J. DAVID GLADSTONE INSTITUTES, A TESTAMENTARY TRUST …, priority 2020, published 2023)

Legend:
isolated adult CMs = assay: bulk RNA-Seq of isolated adult cardiomyocytes from TAC mice; assay type: in vivo, mouse
Method: Cell isolation from mouse hearts was performed as described by Li et al. (J. Vis. Exp. (2014)) with modifications. Briefly, after proper anesthesia level was reached, thoracotomy was performed, and mouse heart was isolated. The isolated heart was cannulated and perfused with perfusion buffer (120.4 mM NaCl, 14.7 mM KCl, 0.6 mM KH2PO4, 0.6 mM Na2HPO4, 1.2 mM MgSO4, 10 mM Na-HEPES, 4.6 mM NaHCO3, 30 mM taurine, 10 mM 2,3-butanedione monoxime, and 5.5 mM glucose, pH 7.0) in a Langendorff perfusion system (Radnoti 120108EZ) for 5-10 minutes at 37° C. The cannulated heart was then digested by digestion buffer (perfusion buffer with 300 units/mL collagenase II (Worthington Biochemical) and 50 μM CaCl2)) for about 10 min at 37° C. […] 30 k cells were counted with trypan blue using a hemocytometer and then used for subsequent 10× Genomics Chromium single cell RNAseq preparation. […] Nuclei were then counted with DAPI using a hemocytometer and finally 30 k non-CM nuclei used for subsequent 10× Genomics Chromium single cell ATACseq preparation. […]
Total RNA from CMs was extracted using miRNeasy kit (Qiagen) according to the manufacturer's instructions and quantified with Nanodrop (Thermo scientific). […] Reads were mapped to the mm10 reference mouse genome using STAR (v 2.7.3a) and assigned to Ensembl genes. […]

[1] = system: non-CM compartment of mouse hearts; assay: single cell RNA sequencing of non-CM heart cells from TAC mice; assay type: in vivo
Method: (§1) Cell isolation from mouse hearts was performed as described by Li et al. (J. Vis. Exp. (2014)) with modifications. Briefly, after proper anesthesia level was reached, thoracotomy was performed, and mouse heart was isolated. The isolated heart was cannulated and perfused with perfusion buffer (120.4 mM NaCl, 14.7 mM KCl, 0.6 mM KH2PO4, 0.6 mM Na2HPO4, 1.2 mM MgSO4, 10 mM Na-HEPES, 4.6 mM NaHCO3, 30 mM taurine, 10 mM 2,3-butanedione monoxime, and 5.5 mM glucose, pH 7.0) in a Langendorff perfusion system (Radnoti 120108EZ) for 5-10 minutes at 37° C. The cannulated heart was then digested by digestion buffer (perfusion buffer with 300 units/mL collagenase II (Worthington Biochemical) and 50 μM CaCl2)) for about 10 min at 37° C. At the end of digestion, the atria and great vessels were removed, and the ventricular tissue was transferred to and gently teased into small pieces in stop buffer (perfusion buffer with 10% fetal bovine serum) at 37° C. After gently pipetting, cell suspension was passed through a 250 uM strainer in a falcon tube and then at 30×g for 3 minutes at room temperature (RT). Then, the supernatant—containing most of the non-cardiomyocytes (CMs)—was divided from the pellet (containing the CM fraction). The non-CM fraction was centrifuged again at 30×g for 3 minutes at RT and the supernatant kept. The supernatant was then filtered with a cell strainer (70 um) and finally centrifuged at 400×g for 3 minutes at RT for eliminating debris. The non-CM pellet was finally resuspended in 1 mL cold PBS 0.5% BSA. 30 k cells were counted with trypan blue using a hemocytometer and then used for subsequent 10× Genomics Chromium single cell RNAseq preparation. For single cell ATAC, 500 k isolated and purified non-CMs were resuspended in […] lysis buffer (Tris-HCl 10 mM pH 7.4, NaCl 10 mM, MgCl2 3 mM, Tween-20 0.1%, P40 0.1%, Digitonin 0.01%, BSA 1% in Nuclease-free water), pipetted 10 times and kept on ice for 5 minutes. Nuclei were then washed 1 mL 1× PBS with 1% BSA and then […] at 4° C. The nuclei pellet was resuspended in 1 mL 1× PBS with 1% BSA and filtered with a 10 uM strainer (pluriSelect #43-50010-00). Nuclei were then counted with DAPI using a hemocytometer and finally 30 k non-CM nuclei used for subsequent 10× Genomics Chromium single cell ATACseq preparation. The CM-fraction was, after the first centrifugation, centrifugated again at 30×g for 3 minutes at RT in stopping buffer and the supernatant was discarded. The CM pellet was finally centrifuged at 400×g for 3 minutes in stopping buffer at RT and after discarding the supernatant, the cell pellet was lysed in Qiazol (miRNeasy kit—Qiagen) for subsequent RNA extraction.
Single-cell droplet libraries from the non-CM cell suspension (2× Sham, 2× TAC-Veh, 2× TAC-JQ1 and 2× TAC-JQ1 withdrawn) (FIG. 2C) were generated in the 10× Genomics Chromium controller according to the manufacturer's instructions in the Chromium Single Cell 3′ Reagent Kit v.2 User Guide. Additional components used for library preparation include the Chromium Single Cell 3′ Library and Gel Bead Kit v.2 (PN-120237) and the Chromium Single Cell 3′ Chip kit v.2 (PN-120236). Libraries were prepared according to the manufacturer's instructions using the Chromium Single Cell 3′ Library and Gel Bead Kit v.2(PN-120237) and Chromium 7 Multiplex Kit (PN-120262). Final libraries were sequenced on the NextSeq 500 (Illumina) for a quality control run and then on the NovaSeq (Illumina) for deeper sequencing. All the 8 samples were pooled and sequenced in one single lane. Sequencing parameters were selected according to the Chromium Single Cell v.2 specifications. All libraries were sequenced to a mean read depth of at least 50,000 total aligned reads per cell. Raw sequencing reads were processed using the Cell Ranger v.2.2.0 pipeline from 10× Genomics. […]

[2] = system: distal elements (incl. Meox1 enhancer) in fibroblasts, myeloid and endothelial cells; assay: single cell ATAC sequencing of non-CM heart nuclei from TAC mice, chromatin accessibility of distal elements; assay type: in vivo, mouse
Method: as §1
After successful nuclei isolation, nuclei were then processed according to the 10× Genomics Single Cell ATAC kit v1.0 (PN-1000110) by first incubating with Tn5 Transposase for 1 hour, followed by GEM generation and barcode amplification using the 10× Genomics Chromium controller according to the manufacturer's instructions. Additional components used for library preparation include the Chromium Chip E Single Cell ATAC kit (PN-1000082) and Chromium i7 Multiplex Kit N, Set A primers (PN-1000084). Final libraries were sequenced on the NextSeq 500 (Illumina) for a quality control run and then on the NovaSeq (Illumina) for deeper sequencing. All the 8 samples (2× Sham, 2× TAC-Veh, 2× TAC-JQ1 and 2× TAC-JQ1 withdrawn) (FIG. 2C) were pooled and sequenced in one NovaSeq single lane. Sequencing parameters were selected according to the Chromium Single Cell ATAC v1.0 specifications. All libraries were sequenced to a median read depth of at least 2,500 fragments/nuclei. Raw sequencing reads were processed using the Cell Ranger ATAC v1.0 pipeline from 10× Genomics. In brief, reads were demultiplexed and aligned to the mouse mm10 genome. As a test of sample quality, a minimum of 70% of fragments overlapped targeted regions as defined by CellRanger. […]

Meox1 expression = Meox1 expression by qPCR in TGF-β-treated cultured cardiac fibroblasts; assay type: cell-based, mouse; settings: TGF-β1 10 ng/ml, JQ1 500 nM
Method: JQ1 was synthesized and purified in the laboratory of Jun Qi (Dana-Farber Cancer Institute), as described by Filippakopoulos et al. (Nature 468, 1067-1073 (2010)). For in vivo experiments, a stock solution [50 mg/ml JQ1 in dimethyl sulfoxide (DMSO)] was diluted to a working concentration of 5 mg/ml in an aqueous carrier (10% hydroxypropyl b-cyclodextrin; Sigma C0926) using vigorous vortexing. Mice were injected at a dose of 50 mg/kg given intraperitoneally once daily. Vehicle control was an equal amount of DMSO dissolved in 10% hydroxypropyl b-cyclodextrin carrier solution. All solutions were prepared and administered using sterile technique. For in vitro experiments, JQ1 was dissolved in DMSO and administered to cells at 500 nM final concentration using an equal volume of DMSO as control.
A Tcf21MCM mouse (Acharya et al., Genesis 49, 870-877 (2011)) was crossed with a Rosa26-Ai6 mouse (Jackson Laboratory stock #007906) to generate a Tcf21^MCM/+; Rosa26^Ai6/+ mouse. At 10 weeks of age, intraperitoneal injection of Tamoxifen (75 mg tamoxifen/kg) was done for 5 days (once a day). […] As primary cells only undergo a pre-determined and finite number of cell divisions in culture, and then enter a state of replicative senescence, the inventors employed a widely used method for immortalizing mammalian cells in culture based on Simian virus 40 (SV40) T antigen expression. […]
Quantitative RT-PCR. […]

[3] = system: MEOX1 expression in human fibroblasts from lung; assay: MEOX1 expression by qPCR in TGFβ-treated human lung fibroblasts; assay type: cell-based; settings: TGF-β1 10 ng/ml, JQ1 0.5 uM
Method: (§2) Human fibroblasts from lung (ATCC, #CRL-4058), liver (CELL APPLICATIONS INC, #712-05f) and kidney (Cell Biologics, #H-6016) were passaged and grown like the mouse cardiac fibroblasts (see “Generation of cardiac fibroblast immortalized cell line, culture condition and TGFβ stimulation” section for more details”). In brief, human fibroblasts were seeded at 1×10^5/well of 6 well plate at day 1. On day 2, the media was changed to the same basal media with 0.5% FBS. On the day 3, TGF-β1 (Peprotech #100-21C) was added into the media at a concentration of 10 ng/ml. JQ1 was added at a final concentration of 0.5 uM. Cells were collected on day 5 for RT-qPCR and gene expression analysis.

[4] = system: MEOX1 expression in human fibroblasts from liver; assay: MEOX1 expression by qPCR in TGFβ-treated human liver fibroblasts; assay type: cell-based; settings: TGF-β1 10 ng/ml, JQ1 0.5 uM
Method: as §2

[5] = system: MEOX1 expression in human fibroblasts from kidney; assay: MEOX1 expression by qPCR in TGFβ-treated human kidney fibroblasts; assay type: cell-based; settings: TGF-β1 10 ng/ml, JQ1 0.5 uM
Method: as §2

[6] = system: BET family of bromodomain proteins; settings: background description; cited from earlier work
[7] = system: several rodent models of HF; settings: background description; cited from earlier work

## Cc1sc2c(c1C)C(c1ccc(Cl)cc1)=NC(CC(=O)OC(C)(C)C)c1nnc(C)n1-2 (centres unmarked) [JQ1]
Isolated adult CMs
  overlap of CM transcriptome effects with transcriptomic signature of whole LV tissue: < 3%
Isolated adult CMs; compared to published signature of whole LV tissue
  effects on the transcriptome of isolated adult CMs: modest
[1]; TAC JQ1-treated
  fibroblast cell state (scRNAseq clustering): dramatic reversion of this cell state to one that closely approached the Sham state
  myofibroblast cell state (Postn marker): shifted the myoFB cell state back toward a Sham-like state
[1]; TAC JQ1 withdrawn
  Meox1 expression in MyoFBs (scRNAseq) after withdrawal: robust re-induction
  fibroblast cell state (scRNAseq clustering) after withdrawal: shift of the FB population back to a TAC-like stressed state
  myofibroblast cell state (Postn marker) after withdrawal: reverts these cells back to myoFBs
[1]; TAC, BET inhibition with JQ1
  Meox1 expression in MyoFBs (scRNAseq): abolished
[1]; TAC, JQ1 exposure
  transcriptome of endothelial and myeloid compartments: dynamic transcriptomic shifts
[2]; fibroblasts
  accessibility of fibroblast regions that opened from Sham to TAC (Cluster 9): insensitive
[2]; fibroblasts, but not myeloid and endothelial cells
  sensitivity of the enhancer downstream of Meox1 to stress and JQ1 exposure: extremely sensitive
[2]; fibroblasts, JQ1 treatment
  accessibility of the 10 peaks of the Meox1 enhancer: closed with JQ1 treatment back to a Sham level
  increase in chromatin accessibility after TAC in fibroblasts: reversibly attenuated
[2]; fibroblasts, JQ1 withdrawal
  accessibility of dynamic fibroblast distal elements (Cluster 2) after withdrawal: robustly re-accessible
[2]; fibroblasts, JQ1 withdrawn
  accessibility of the 10 peaks of the Meox1 enhancer after withdrawal: re-opened
[2]; fibroblasts, closed in Sham, opened in TAC, JQ1 treatment
  accessibility of dynamic fibroblast distal elements (Cluster 2): closed by JQ1
[2]; myeloid and endothelial cells, JQ1 treatment
  attenuation of chromatin accessibility after TAC in myeloid and endothelial cells: less evident
Meox1 expression
  TGF-β-induced Meox1 upregulation: suppressed
[3]
  TGFβ-induced MEOX1 expression: suppressed
[4]
  TGFβ-induced MEOX1 expression: suppressed
[5]
  TGFβ-induced MEOX1 expression: suppressed
[6]
  potency as BET bromodomain inhibitor: potent inhibitor
[7]
  prevention and treatment of heart failure: can prevent and treat HF
